Test results published in patent US20100210649A1, “PYRIDAZINONES AND FURAN-CONTAINING COMPOUNDS” (Sloan-Kettering Institute for Cancer Research, priority 2006, published 2010).
Read-outs that look alike come from different tables or passages of the source.

What was measured:
Type in all cases: cell-based, human
H1650 = assay: Non Small Cell Lung Cancer proliferation assay (Alamar Blue reduction), H1650; settings: Homo sapiens, NCI-H1650, primary screening, 10 μM compound in 1% DMSO (v/v)
Method: (§1) These cells have a doubling time of 1-2 days. All cell types are adherent and grow in colonies. The cells should be kept at a density between 50,000 cells/mL -500,000 cells/mL to provide for optimum growth and adequate nutrition. The cell line should be maintained at 37° C. in a humidified atmosphere with 5% CO2 in a sterile cell culture incubator.
(§2) Non Small Cell Lung Cancer Proliferation Assay.
(§3) High Controls for this assay are made by treating Non Small Cell Lung Cancer cells with 5 ul of 10% DMSO. [Final concentration in this assay is 1% DMSO].
(§4) Important Note: All compounds for testing in this assay should be done at the final concentration of 1% DMSO.
(§5) After addition, the cells are placed in cell culture incubator at 37° C. for 48 hours for complete treatment.
(§6) After drug treatment, cytotoxicity is measured by Alamar Blue reduction.
(§7) The cells are incubated for 48 hours at 37° C. to complete the Alamar Blue reduction.
(§8) The final step in the assay is to measure the amount of Alamar Blue reduction. […] The Alamar Blue fluorescence is measured at an excitation of 530 nm and emission of 590 nm.
(§9) For the NSCLC project, the cell based assay was screened against a small molecule library of approximately 200,000 compounds. The compound library is stored in our automated robotic freezer (Biophile) at −20° C. in 100% DMSO. Compound freeze and thaw cycles are kept to a minimum. […] This assay was performed on a fully automated linear track robotic platform (CRS F3 Robot System, Thermo Electron Corp., Ontario, Canada) utilizing several integrated peripherals for plate handling, liquid dispensing, and readout detection. […] The microplates are then placed at 37° C. for 48 hours to complete treatment of cells with compounds. Next, 5 ul of alamar blue was added using a liquid dispenser (Flexprop Precision Dispenser, Perkin Elmer, Mass., USA) and incubated for 48 hours at 37° C. The alamar blue prompt fluorescence was measured on Victor V (Victor^3 V, Perkin Elmer, Mass., USA) and output data files were loaded into ORIS (Oncology Research Informatics System, MSKCC, NY, USA), a screening data acquisition and analysis platform.
(§10) The dose response studies were done with the following standard procedure. First, the cells were counted and dispensed at 250 cells/well into 384-well microplates with compound. The cells were incubated for 48 hours at 37 C to complete treatment, and then alamar blue was added for an additional 48 hours. Finally, alamar blue reduction was measured and the data was loaded into ORIS, our data screening acquisition platform.

H1975 = assay: Non Small Cell Lung Cancer proliferation assay (Alamar Blue reduction), H1975; settings: Homo sapiens, NCI-H1975, primary screening, 10 μM compound in 1% DMSO (v/v)
Method: as §1, §2, §3, §4, §5, §6, §7, §8, §9, §10

H2030 = assay: Non Small Cell Lung Cancer proliferation assay (Alamar Blue reduction), H2030; settings: Homo sapiens, NCI-H2030, primary screening, 10 μM compound in 1% DMSO (v/v)
Method: as §1, §2, §3, §4, §5, §6, §7, §8, §9, §10

H3255 = assay: Non Small Cell Lung Cancer proliferation assay (Alamar Blue reduction), H3255; settings: Homo sapiens, NCI-H3255, primary screening, 10 μM compound in 1% DMSO (v/v)
Method: as §1, §2, §3, §4, §5, §6, §7, §8, §9, §10

[1] = read-out: percentage inhibition H1650
[2] = read-out: percentage inhibition H1975
[3] = read-out: percentage inhibition H2030
[4] = read-out: percentage inhibition H3255
[5] = H1650, read-out: PRIMARY HTS [%] H1650 (percentage inhibition)
[6] = H1975, read-out: PRIMARY HTS [%] H1975 (percentage inhibition)
[7] = H2030, read-out: PRIMARY HTS [%] H2030 (percentage inhibition)
[8] = H3255, read-out: PRIMARY HTS [%] H3255 (percentage inhibition)

Structure (SMILES)	inhibition at 10 µM (H1650; [1]) [%]	inhibition at 10 µM (H1975; [2]) [%]	inhibition at 10 µM (H2030; [3]) [%]	inhibition at 10 µM (H3255; [4]) [%]	inhibition at 10 µM (H1650; [5]) [%]	inhibition at 10 µM (H1975; [6]) [%]	inhibition at 10 µM (H2030; [7]) [%]	inhibition at 10 µM (H3255; [8]) [%]
O=c1c(SCc2ccccc2)c(SC2CCCCO2)cnn1-c1ccccc1 (centres unmarked) [compound 182828]	25	-5	-8	18	–	–	–	–
O=c1c(Cl)c(SC(c2ccccc2)c2ccccc2)cnn1-c1ccccc1 [compound 208697]	-3	-16	4	31	–	–	–	–
O=c1c(Br)c(-n2cc(CO)nn2)cnn1-c1ccccc1 [compound 224256]	103	102	1	110	–	–	–	–
COc1ccc(N2CCN(Cc3ccc([N+](=O)[O-])o3)CC2)cc1 [compound 100588]	–	–	–	–	-5	-14	5	4
CC1CN(C(=O)c2ccc([N+](=O)[O-])o2)CC(C)O1 (centres unmarked) [compound 77942]	–	–	–	–	14	-2	6	7
N=c1c(-c2nc3ccccc3[nH]2)cc(C(=O)c2cccs2)nn1-c1ccc(Cl)cc1 [compound 186017]	-12	-6	-4	-13	–	–	–	–
COc1c(Cl)cnn(-c2cccc(C)c2)c1=O [compound 104415]	-20	15	-3	9	–	–	–	–
Cc1ccc(C(=O)Nc2ccc(NC(=O)c3ccco3)c(C)c2)c(Cl)c1 [compound 61302]	–	–	–	–	13	16	-2	2
COc1cnn(-c2cccc(C(F)(F)F)c2)c(=O)c1Cl [compound 103872]	17	9	2	-25	–	–	–	–
O=C(COc1cnn(-c2ccccc2)c(=O)c1Cl)c1ccccc1 [compound 199759]	16	36	9	66	–	–	–	–
Cc1ccccc1-n1nc(C(=O)c2cccs2)cc(-c2nc3ccccc3[nH]2)c1=N [compound 186018]	42	-4	4	35	–	–	–	–
O=c1c(Cl)c(Cl)cnn1-c1ccc(Cl)cc1 [compound 104004]	1	98	75	90	–	–	–	–
CCCOc1cnn(-c2ccccc2)c(=O)c1Cl [compound 179389]	-3	1	8	28	–	–	–	–
Cc1cccc(NC(=O)c2cc3cc([N+](=O)[O-])ccc3o2)c1 [compound 84487]	–	–	–	–	27	-5	5	3
COc1cc(Cl)nn(-c2ccccc2)c1=O [compound 206569]	-2	3	7	22	–	–	–	–
O=C(CSc1cnn(-c2ccccc2)c(=O)c1Cl)c1ccc(Br)cc1 [compound 183073]	-3	-6	8	30	–	–	–	–
O=c1c(SCc2ccccc2Cl)c(SCc2ccccc2Cl)cnn1-c1ccccc1 [compound 208695]	-14	-13	-11	-2	–	–	–	–
O=c1c(Cl)c(Cl)c(Cl)nn1-c1ccc(Br)cc1 [compound 202245]	48	96	-8	71	–	–	–	–

Structure (SMILES)	inhibition at 10 µM (H1650; [1]) [%]	inhibition at 10 µM (H1975; [2]) [%]	inhibition at 10 µM (H2030; [3]) [%]	inhibition at 10 µM (H3255; [4]) [%]	inhibition at 10 µM (H1650; [5]) [%]	inhibition at 10 µM (H1975; [6]) [%]	inhibition at 10 µM (H2030; [7]) [%]	inhibition at 10 µM (H3255; [8]) [%]
O=c1ccc(Cl)nn1-c1cccc(Br)c1 [compound 178393]	8	3	-11	-4	–	–	–	–
Cc1cc(N(C)C)c(=O)n(-c2ccccc2)n1 [compound 189015]	21	29	-4	32	–	–	–	–
CCN(Cc1ccccc1)C(=O)c1ccc([N+](=O)[O-])o1 [compound 78535]	–	–	–	–	41	-2	26	8
O=C(Nc1ccc(NC(=O)c2ccc(Cl)cc2Cl)cc1)c1cc2ccccc2o1 [compound 109007]	–	–	–	–	-6	-3	3	1
O=C(Nc1ccc(Cl)cc1)c1cc2c(ccc3ccccc32)o1 [compound 77021]	–	–	–	–	16	-11	-1	4
O=C(Nc1cc(C(F)(F)F)ccc1Cl)c1ccc([N+](=O)[O-])o1 [compound 104039]	–	–	–	–	61	69	13	6
Nc1ccc(Sc2cnn(-c3ccccc3)c(=O)c2Cl)cc1 [compound 181612]	7	-11	11	11	–	–	–	–
O=C(c1ccc([N+](=O)[O-])o1)N(c1ccccc1)c1ccccc1 [compound 98705]	–	–	–	–	-8	14	8	9
Cc1ccc(C)c(Sc2cnn(-c3ccccc3)c(=O)c2Cl)c1 [compound 183339]	15	8	-12	-30	–	–	–	–
O=C(Nc1ccc(-c2ccc([N+](=O)[O-])cc2)cc1)c1ccco1 [compound 102031]	–	–	–	–	-2	-11	-1	3
COc1ccc(-n2nc(C(=O)c3cccs3)cc(-c3nc4ccccc4[nH]3)c2=N)cc1 [compound 186925]	6	3	1	-28	–	–	–	–
O=c1c(SCc2ccc(Cl)cc2Cl)c(SCc2ccc(Cl)cc2Cl)cnn1-c1ccccc1 [compound 208619]	-4	1	-12	-19	–	–	–	–
O=c1c(SCc2ccccc2)c(SCc2ccc(Cl)cc2)cnn1-c1ccccc1 [compound 208705]	-4	-20	10	0	–	–	–	–
O=C(Nc1ccc(Cl)cc1)c1ccco1 [compound 78158]	–	–	–	–	20	-2	6	4
N=c1c(-c2nc3ccccc3[nH]2)cc(C(=O)c2ccco2)nn1-c1ccccc1 [compound 181801]	13	24	-7	7	–	–	–	–
NCCOc1cnn(-c2ccccc2Cl)c(=O)c1Cl [compound 200052]	-9	5	12	-18	–	–	–	–
COc1cnn(-c2cccc(Cl)c2)c(=O)c1Cl [compound 104390]	15	4	-6	34	–	–	–	–
